Patent US20240270821A1, “GIP/GLP1/GCG TRI-RECEPTOR AGONISTS AND USES THEREOF” (priority 2023, published 2024)
Like-named read-outs stand apart in the source and are kept apart here. Starred links: 1 amine or outer side, 2 acyl side, 3 side chain; linkers in the order of their positions; H or OH if unused. Non-standard residues stand in square brackets, D forms with d. Groups on a side chain read outwards from the residue. *: point of attachment. C18 diacid = O=C(O)CCCCCCCCCCCCCCCCC(=O)*; αMePhe(2-F) = C[C@](N)(Cc1ccccc1F)C(=O)O; γGlu = O=C(O)[C@H](CCC(=O)[*:2])N[*:1]; αMe4Pal = C[C@](N)(Cc1ccncc1)C(=O)O; αMeY = C[C@](N)(Cc1ccc(O)cc1)C(=O)O; 4Pal = N[C@@H](Cc1ccncc1)C(=O)O; αMeL = CC(C)C[C@](C)(N)C(=O)O; αMeS = C[C@](N)(CO)C(=O)O; Orn = NCCC[C@H](N)C(=O)O; AEEA = NCCOCCOCC(=O)O; Aib = CC(C)(N)C(=O)O

What was measured:
[1] = test system: Intestinal organoid from Göttingen minipig jejunum tissue, 2D monolayer; assay: Cell based in vitro permeability (Papp) assay; type: in vitro ADME
Method in brief: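 2D monolayers derived from Göttingen minipig jejunal organoids on transwell inserts. Basal samples collected at 20 min in the presence of C10. Peptide in apical and basal compartments quantified by LC/MS to give Papp.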

[2] = target: human GcgR (Homo sapiens, UniProt P47871); assay: Functional cAMP activity in the presence of 1% HSA; type: cell-based; conditions: read-out: cAMP Rel EC50, hGcgR
Sequence of human GcgR (P47871 26-477): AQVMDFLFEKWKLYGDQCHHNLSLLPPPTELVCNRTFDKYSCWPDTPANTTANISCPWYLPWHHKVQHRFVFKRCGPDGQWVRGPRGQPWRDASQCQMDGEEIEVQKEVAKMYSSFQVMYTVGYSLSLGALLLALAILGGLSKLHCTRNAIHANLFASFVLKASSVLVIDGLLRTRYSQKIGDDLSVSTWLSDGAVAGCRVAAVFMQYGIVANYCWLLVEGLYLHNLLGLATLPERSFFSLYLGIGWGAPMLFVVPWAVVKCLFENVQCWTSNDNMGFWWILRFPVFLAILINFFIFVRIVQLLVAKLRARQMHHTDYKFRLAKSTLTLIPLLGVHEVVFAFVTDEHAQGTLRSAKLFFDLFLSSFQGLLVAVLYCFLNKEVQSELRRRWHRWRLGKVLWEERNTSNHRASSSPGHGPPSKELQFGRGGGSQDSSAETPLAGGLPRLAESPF

[3] = target: T1, hGIPR (Homo sapiens, UniProt P48546); assay: Functional cAMP activation in the presence of 0.1% casein (no HSA); type: cell-based; conditions: read-out: Relative cAMP EC50, hGIPR;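 note: intracellular cAMP rise after 30 min at 37 °C read by HTRF against a standard curve, scaled between buffer alone (0%) and top control ligand concentration (100%), four-parameter fit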
T1 sequence (P48546 22-466): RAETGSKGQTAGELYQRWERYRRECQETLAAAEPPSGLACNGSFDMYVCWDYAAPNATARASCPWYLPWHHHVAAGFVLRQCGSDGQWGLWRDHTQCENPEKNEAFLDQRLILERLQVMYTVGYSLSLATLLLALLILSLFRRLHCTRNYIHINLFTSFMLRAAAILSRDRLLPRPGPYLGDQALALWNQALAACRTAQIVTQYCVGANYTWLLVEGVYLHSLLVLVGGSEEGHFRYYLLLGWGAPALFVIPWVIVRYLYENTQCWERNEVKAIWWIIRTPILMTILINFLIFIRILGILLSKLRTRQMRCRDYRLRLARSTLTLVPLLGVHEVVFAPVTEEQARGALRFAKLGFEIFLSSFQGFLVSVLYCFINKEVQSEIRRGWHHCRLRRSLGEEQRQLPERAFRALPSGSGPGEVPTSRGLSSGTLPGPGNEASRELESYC

[4] = in vivo; set-up: species or system cynomolgus monkeys; conditions: both sexes, cynomolgus monkey, iv, 10 nmol/kg
Protocol: (§1) A study is designed to evaluate the oral bioavailability of Example polypeptides in cynomolgus monkeys. […] Standards and controls are prepared in cynomolgus monkey plasma, and any dilutions required to bring samples into the quantitative range are also performed in control cynomolgus monkey plasma. To control assay variability, an internal standard (IS) is added to all the standards and samples. The Examples and IS are extracted from 100% monkey plasma (50 μL) by protein precipitation using isopropyl alcohol and methanol (50:50 v/v). The samples are then centrifuged (3000 rpm for 10 minutes) and the supernatant is transferred to a Siricco Protein Precipitation Plate. The samples are loaded on a Sep-Pak tC18 SPE microelution plate that is conditioned with 2% formic acid in acetonitrile and water. The compounds are then washed with 2% formic acid in water and eluted using 2% formic acid in acetonitrile into a plate containing 5× Invitrosol and 1% formic acid in water prior to injecting an aliquot (10 μL) on to Xselect CSH C18, 3.5 μm, 2.1×20 mm for LC/MS analysis.
Blood samples are collected over 504 hours. Plasma is harvested from blood samples by centrifugation and stored frozen (−70° C.) until analysis. Plasma concentrations of the molecules are detected using the bioanalytical method described above.

[5] = target: human GLP1-R (Homo sapiens, UniProt P43220); assay: GLP1-R internalization assay in HEK293 cells; type: cell-based; conditions: for EC50: HEK293 cells expressing SNAP-GLP-1R, read-out: GLP1R Internalization EC50; for Internalization % TOP: normalized to maximum concentration of GLP-1 (100%)
Sequence of human GLP1-R (P43220 24-463): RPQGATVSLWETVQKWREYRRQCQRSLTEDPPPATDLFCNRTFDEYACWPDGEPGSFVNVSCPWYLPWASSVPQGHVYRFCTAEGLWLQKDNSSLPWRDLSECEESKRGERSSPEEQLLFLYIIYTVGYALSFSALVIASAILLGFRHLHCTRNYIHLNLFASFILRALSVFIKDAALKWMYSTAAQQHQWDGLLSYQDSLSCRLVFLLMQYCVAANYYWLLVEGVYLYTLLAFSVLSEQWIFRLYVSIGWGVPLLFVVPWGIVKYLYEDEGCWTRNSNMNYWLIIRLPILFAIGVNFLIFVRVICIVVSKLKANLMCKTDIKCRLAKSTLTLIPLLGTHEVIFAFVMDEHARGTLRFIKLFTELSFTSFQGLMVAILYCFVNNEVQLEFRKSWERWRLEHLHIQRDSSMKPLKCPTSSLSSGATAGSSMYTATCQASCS

[6] = target: T1, hGIPR; assay: Functional cAMP activity in the presence of 1% HSA; type: cell-based; conditions: read-out: cAMP Rel EC50, hGIPR
[7] = target: T2, hGLP-1R (Homo sapiens, UniProt P43220); assay: Functional cAMP activation in the presence of 0.1% casein (no HSA); type: cell-based; conditions: read-out: Relative cAMP EC50, hGLP-1R;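 note: intracellular cAMP rise after 30 min at 37 °C read by HTRF, normalized between buffer only (0%) and maximal control ligand (100%), four-parameter variable-slope fit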
T2 sequence (P43220 24-463): as above

[8] = target: hGcgR (Homo sapiens, UniProt P47871); assay: as above; type: cell-based; conditions: read-out: Relative cAMP EC50, hGcgR;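 note: intracellular cAMP rise after 30 min at 37 °C, read by HTRF against a cAMP standard curve, scaled from buffer only (0%) to maximal control ligand response (100%)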
Sequence of hGcgR (P47871 26-477): as the sequence (P47871 26-477) above

[9] = target: T2, hGLP-1R; assay: Functional cAMP activity in the presence of 1% HSA; type: cell-based; conditions: read-out: cAMP Rel EC50, hGLP-1R
[10] = in vivo; set-up: species or system cynomolgus monkeys; conditions: both sexes, cynomolgus monkey, po; for bioavailability: 10 mg; for AUC(0-inf) / CL/F / Cmax / Tmax / half-life: 300 mg
Protocol: as §1
[…] Blood samples are collected up to 504 hours post-dose. Plasma is harvested from blood samples by centrifugation and stored frozen (−70° C.) until analysis. Plasma concentrations of the molecules are detected using the bioanalytical method described above.

[11] = Pepsin stability assay in simulated gastric fluid; type: in vitro ADME; conditions: pH 1.2, % Intact (SD)
Protocol: A pepsin stability assay is utilized to determine the relative stability of Example polypeptides in a simulated gastric proteolytic environment. […] The relative amount of intact peptide is quantified by mass spectrometry (MS). […] The examples were dissolved in 50 mM Tris buffer pH 8.0 at a concentration of 10 mg/mL as a stock solution. Pepsin A was reconstituted in SGF at 10 mg/mL. […] The example peptide and pepsin solutions were then incubated at 37° C. in a shaking incubator set at 100 rpm. Samples (25 μL) were withdrawn at different time intervals and quenched with 100 mM ammonium bicarbonate pH 9 (50 μL) to stop proteolytic activity. All samples were centrifuged, and the supernatants were analyzed by LC/MS to determine the remaining intact peptide.

[12] = Body weight in diet-induced obese C57BL/6 mice; type: in vivo; conditions: 10 nmol/kg SC QD, percent of starting weight, DIO mice, mean ± SEM n=5
Method in brief: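 Male C57BL/6 DIO mice (41-50 g, 5 per group, randomized by weight) on calorie-rich diet received subcutaneous doses 30-90 min before dark onset, QD or Q3D for 9-16 days. Body weight measured daily, expressed as percent of starting weight, mean±SEM.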

[13] = in the presence of 0.1% casein (no HSA), geometric mean

Compound	EC50 [2]	EC50 [3]	AUC(0-inf) [4]	clearance [4]	half-life [4]	EC50 [5]	Internalization % TOP [5]	EC50 [6]	EC50 [7]	EC50 [8]	EC50 [9]	bioavailability [10]	AUC(0-inf) [10]	CL/F [10]	Cmax [10]	Tmax [10]	half-life [10]	Body weight (%) ([12]; 14 days)	further results
CC[C@H](C)[C@H](NC(=O)[C@H](CC(C)C)NC(=O)[C@](C)(Cc1ccc(O)cc1)NC(=O)[C@@H](CCC(=O)O)NC(=O)[C@@H](NC(=O)[C@H](Cc1ccccc1)NC(=O)[C@H](CCC(=O)O)NC(=O)[C@](C)(Cc1ccncc1)NC(=O)[C@H](CCC(N)=O)NC(=O)[C@H](C)NC(=O)[C@H](CCCCNC(=O)COCCOCCNC(=O)CC[C@H](NC(=O)CCCCCCCCCCCCCCCCC(=O)O)C(=O)O)NC(=O)[C@H](CCCN)NC(=O)[C@H](CC(=O)O)NC(=O)[C@H](CC(C)C)NC(=O)[C@](C)(CC(C)C)NC(=O)[C@@H](NC(=O)[C@](C)(CO)NC(=O)[C@H](Cc1ccncc1)NC(=O)[C@H](CC(=O)O)NC(=O)[C@H](CO)NC(=O)[C@@H](NC(=O)[C@](C)(Cc1ccccc1F)NC(=O)[C@@H](NC(=O)CNC(=O)[C@H](CCC(N)=O)NC(=O)C(C)(C)NC(=O)[C@@H](N)Cc1ccc(O)cc1)[C@@H](C)O)[C@@H](C)O)[C@@H](C)CC)[C@@H](C)CC)C(=O)N[C@@H](CCC(=O)O)C(=O)NCC(=O)NCC(=O)N1CCC[C@H]1C(=O)N[C@@H](CO)C(=O)N[C@@H](CO)C(=O)NCC(=O)N[C@@H](C)C(=O)N1CCC[C@H]1C(=O)N1CCC[C@H]1C(=O)N1CCC[C@H]1C(=O)N[C@@H](CO)C(=O)NCC(=O)N[C@@H](CO)C(N)=O [Example 699]	144 nM	0.00663 nM	9.23 ± 1.64 µM·h	0.0185 mL/min/kg	50.8 ± 13.7 h	14.9 nM	102%	0.566 nM	0.196 nM	1.35 nM	25.3 nM	1.3%	7.15 µM·h	1.51 mL/min/kg	187 nM	2.75 h	34.3 h	56.85 ± 2.42 %	Relative Papp (Compared to internal standard) [1]: 0.51; remaining at 0.25 h, 0.4 mg/mL [11]: 97.9%; Body weight (%) ([12]; 7 days): 68.34 ± 0.85 %
H-Y[Aib]QGTFTSD[4Pal]SQ[αMeL]LDKK([γGlu-γGlu-C18 diacid])AQ[αMe4Pal]AFIEYLIAGGPSSGAPPPSGE-NH2 [Example 883]	578 nM	–	8.69 ± 0.623 µM·h	0.0192 mL/min/kg	62.8 ± 53.9 h	23.9 nM	77.1%	9.41 nM	–	–	120 nM	0.3%	1.28 µM·h	11.1 mL/min/kg	43.6 nM	2 h	29 h	–	EC50 [3, 13]: 0.0779 nM; EC50 [7, 13]: 1.05 nM; EC50 [8, 13]: 4.02 nM
H-Y[Aib]QGTFTSD[4Pal]SQ[αMeL]LD[Orn]K([γGlu-γGlu-C18 diacid])AQ[αMe4Pal]AFIE[αMeY]LIEGGPSSGEPPPSGSEE-NH2 [Example 1027]	1470 nM	–	8.57 ± 1.55 µM·h	0.02 mL/min/kg	76.4 ± 31.4 h	–	–	58.1 nM	–	–	252 nM	1.2%	5.07 µM·h	2.77 mL/min/kg	135 nM	2.5 h	55.7 h	–	EC50 [3, 13]: 0.208 nM; EC50 [7, 13]: 1.23 nM; EC50 [8, 13]: 4.99 nM
H-Y[Aib]QGT[αMePhe(2-F)]TSD[4Pal]SILLDKK([γGlu-γGlu-C18 diacid])AQ[Aib]AFIEYLEEGGPSSGAPPPSGTGE-NH2 [Example 510]	564 nM	0.0627 nM	14.5 ± 3.42 µM·h	0.0119 mL/min/kg	55.9 ± 13.2 h	11.8 nM	113%	6.4 nM	0.71 nM	5.44 nM	74.2 nM	0.7%	5.09 µM·h	5.17 mL/min/kg	126 nM	2 h	47 h	–	–
H-Y[Aib]QGT[αMePhe(2-F)]TSD[4Pal]SI[αMeL]LD[Orn]K([γGlu-γGlu-C18 diacid])AQ[αMe4Pal][Orn]FI[dE][αMeY]LIEGGPSSGEPPPETE-NH2 [Example 686]	169 nM	0.00776 nM	7.04 ± 1.29 µM·h	0.0243 mL/min/kg	41.5 ± 2.35 h	33.2 nM	101%	0.542 nM	0.298 nM	2.43 nM	19.1 nM	3.6%	14.2 µM·h	2.93 mL/min/kg	249 nM	1 h	44.6 h	72.73 ± 3.65 %	Relative Papp (Compared to internal standard) [1]: 0.60
H-Y[Aib]QGT[αMePhe(2-F)]TSD[4Pal][αMeS]ILLD[Orn]K([γGlu-γGlu-C18 diacid])AQ[Aib][Orn]FI[dE]YLIEGGPSSGEPPPSGTGE-NH2 [Example 548]	295 nM	0.0547 nM	10.5 ± 1.58 µM·h	0.0162 mL/min/kg	53.2 ± 0.603 h	17.8 nM	109%	3.48 nM	0.478 nM	3.94 nM	38 nM	0.6%	3.58 µM·h	2.7 mL/min/kg	75.7 nM	1.5 h	45 h	–	–
H-Y[Aib]QGT[αMePhe(2-F)]TSD[4Pal][αMeS]I[αMeL]LD[Orn]K([AEEA-γGlu-C18 diacid])AQ[αMe4Pal]EFI[dE][αMeY]LIEGGPSSGAPPPSGGGE-NH2 [Example 741]	200 nM	0.00612 nM	9.55 ± 2.28 µM·h	0.0182 mL/min/kg	32.1 ± 4.22 h	50.1 nM	–	0.817 nM	0.239 nM	2.01 nM	32.4 nM	0.8%	4.2 µM·h	2.28 mL/min/kg	95.8 nM	3.75 h	58.1 h	59.42 ± 2.94 %	remaining at 0.25 h, 0.4 mg/mL [11]: 111%; remaining at 0.5 h, 0.4 mg/mL [11]: 104%; remaining at 1 h, 0.4 mg/mL [11]: 105%
